# Test results reported in ChEMBL document CHEMBL4825699, “Metabolic and conformational stabilization of a VEGF-mimetic beta-hairpin peptide by click-chemistry” (Eur J Med Chem, 2021).
# Activity calls are given as the source filed them. No cut-off for these calls is given here.
# Assays:
# HUVEC [1] = experiment: Binding affinity to VEGFR in human HUVEC assessed as induction of cell proliferation measured after 24 to 48 hrs by CyQuant NF Cell Proliferation assay; settings: dose 25-50 nM, time 24-48 hrs
# [2] = Metabolic stability of the compound in 50% human serum incubated for 120 mins by RP-HPLC analysis; format: ADME, cell-free; settings: read-out: Stabilty
# HUVEC [3] = experiment: Binding affinity to VEGFR in human HUVEC assessed as induction of cell proliferation at 50 nM measured after 48 hrs in presence of 250 nM VEGFR1D2 by CyQuant NF Cell Proliferation assay
# HUVEC [4] = experiment: Binding affinity to VEGFR in human HUVEC assessed as induction of cell proliferation at 25 to 50 nM measured after 48 hrs by CyQuant NF Cell Proliferation assay relative to control; settings: dose 25-50 nM
# HUVEC [5] = experiment: Cytotoxicity against human HUVEC assessed as reduction in cell viability at 50 nM measured after 48 hrs by CyQuant NF Cell Proliferation assay; format: cell-based; settings: 0.05 µM
# HUVEC [6] = experiment: Pro-angiogenic activity in human HUVEC assessed as organization into capillary network formation by measuring increase in branch points number counting at 50 nM measured after 6 hrs by inverted microscopy relative to HPLW; format: functional
# HUVEC [7] = experiment: Binding affinity to VEGFR in human HUVEC assessed as induction of cell proliferation at 25 to 50 nM measured after 48 hrs by CyQuant NF Cell Proliferation assay relative to HPLW; settings: dose 25-50 nM
# HUVEC [8] = experiment: Pro-angiogenic activity in human HUVEC assessed as organization into capillary network formation by measuring increase in branch points number counting at 50 nM measured after 6 hrs by inverted microscopy relative to Ac-HPLW-NH2; format: functional
# HUVEC [9] = experiment: Binding affinity to VEGFR in human HUVEC assessed as induction of cell proliferation at 25 to 50 nM measured after 48 hrs by CyQuant NF Cell Proliferation assay relative to Ac-HPLW-NH2; settings: dose 25-50 nM
# [10] = Metabolic stability of the compound in 50% human serum assessed as drug degradation incubated for 120 mins by RP-HPLC analysis; format: ADME, cell-free; settings: read-out: Drug degradation
# [11] = Metabolic stability of the compound in 50% human serum assessed as half life by RP-HPLC analysis; format: ADME, cell-free
Compound,Activity (HUVEC [1]),remaining at 2 h [2],Activity (HUVEC [3]),Activity (HUVEC [4]),Activity (HUVEC [5]),Activity (HUVEC [6]),Activity (HUVEC [7]),Activity (HUVEC [8]),Activity (HUVEC [9]),metabolised at 2 h [10],half-life [11]
CC[C@H](C)[C@@H]1NC(=O)[C@@H](NC(=O)[C@H](CC(C)C)NC(=O)[C@H](CC(C)C)NC(=O)[C@H](CCC(N)=O)NC(=O)[C@H](CCCCN)NC(C)=O)CCCc2cn(nn2)CCC[C@@H](C(=O)N[C@@H](Cc2ccc(O)cc2)C(=O)N[C@@H](Cc2c[nH]c3ccccc23)C(=O)N[C@H](C(=O)N[C@@H](CO)C(N)=O)[C@@H](C)O)NC(=O)[C@@H]2CCCN2C(=O)[C@H](CCCNC(=N)N)NC(=O)[C@H](CC(=O)O)NC(=O)CNC(=O)[C@H](CO)NC(=O)[C@H](CCCNC(=N)N)NC1=O,Toxic,100%,inactive,92%,Non-Toxic,13%,37%,28%,30%,,
Ac-KQLLWIRSGDRPWYYTS-NH2,Dose-Dependent Effect,,inactive,,Non-Toxic,,,,,100%,25 min
H-KQLLWIRSGDRPWYYTS-OH,Dose-Dependent Effect,,inactive,,Non-Toxic,,,,,100%,25 min
